The target in the test is T1, human recombinant HDAC6 (Homo sapiens, UniProt Q9UBN7).
T1 construct: purchased Calbiochem 382180
T1 sequence (Q9UBN7 1-1215): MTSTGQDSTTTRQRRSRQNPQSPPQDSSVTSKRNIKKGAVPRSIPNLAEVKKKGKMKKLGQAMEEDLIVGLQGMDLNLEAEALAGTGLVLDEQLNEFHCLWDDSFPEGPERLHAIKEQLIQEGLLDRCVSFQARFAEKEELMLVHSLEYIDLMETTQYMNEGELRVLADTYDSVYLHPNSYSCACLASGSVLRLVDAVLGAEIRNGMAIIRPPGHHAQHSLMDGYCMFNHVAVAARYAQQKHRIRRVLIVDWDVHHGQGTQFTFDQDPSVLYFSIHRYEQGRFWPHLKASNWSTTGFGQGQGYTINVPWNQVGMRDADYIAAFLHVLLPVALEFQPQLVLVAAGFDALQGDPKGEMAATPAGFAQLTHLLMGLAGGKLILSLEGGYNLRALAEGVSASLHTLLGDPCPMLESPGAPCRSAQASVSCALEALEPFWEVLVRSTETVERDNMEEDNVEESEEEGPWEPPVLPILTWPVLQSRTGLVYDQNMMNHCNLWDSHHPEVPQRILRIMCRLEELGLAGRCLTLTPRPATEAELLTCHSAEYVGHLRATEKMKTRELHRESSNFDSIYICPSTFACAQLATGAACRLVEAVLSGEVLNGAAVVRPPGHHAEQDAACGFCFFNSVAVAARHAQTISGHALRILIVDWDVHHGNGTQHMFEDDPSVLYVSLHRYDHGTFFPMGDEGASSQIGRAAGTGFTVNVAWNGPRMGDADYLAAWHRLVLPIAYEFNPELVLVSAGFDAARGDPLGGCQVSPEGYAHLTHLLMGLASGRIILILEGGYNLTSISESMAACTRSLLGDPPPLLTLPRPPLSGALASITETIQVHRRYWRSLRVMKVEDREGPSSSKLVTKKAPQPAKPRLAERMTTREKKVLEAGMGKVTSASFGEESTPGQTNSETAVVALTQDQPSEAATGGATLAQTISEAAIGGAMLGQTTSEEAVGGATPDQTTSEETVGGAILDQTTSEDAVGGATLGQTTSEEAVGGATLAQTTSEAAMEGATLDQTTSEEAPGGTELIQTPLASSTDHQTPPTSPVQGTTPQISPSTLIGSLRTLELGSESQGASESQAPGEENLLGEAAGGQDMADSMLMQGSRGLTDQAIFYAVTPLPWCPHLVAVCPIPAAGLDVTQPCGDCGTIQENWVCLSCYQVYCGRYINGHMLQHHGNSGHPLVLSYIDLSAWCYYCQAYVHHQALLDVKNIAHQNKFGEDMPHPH
As to the kind of experiment: HDAC6 enzyme activity inhibition assay (HDAC Fluorimetric Drug Discovery Kit). The class given is biochemical. Particulars: for HDAC6 selectivity (fold): HDAC6 over HDAC1; for pIC50: human recombinant HDAC6, same protocol as HDAC1, read-out: HDAC6. The procedure:
In order to examine the HDAC6 selectivity of the compounds of formula I of the present invention by HDAC1 and HDAC6 enzymatic activity inhibition assays, an experiment was performed using a conventional substance as a control.
HDAC enzyme activity was measured using a HDAC Fluorimetric Drug Discovery Kit (BML-AK511, 516, Enzo Life Science). For the HDAC1 enzyme activity test, human recombinant HDAC1 (BML-SE456) was used as an enzyme source, and Fluor de Lys®-“SIRT1 (BNL-KI177) was used as a substrate. A 5-fold dilution of the compound was seeded into a 96-well plate, and then 0.3 μg of the enzyme and 10 μM of the substrate were added to each well of the plate and allowed to react at 30° C. for 60 minutes. Then, Fluor de Lys®-Developer II (BML-KI176) was added thereto and allowed to react for 30 minutes, after which the fluorescence value (Ex 360, Em 460) was measured using a multi-plate reader (Flexstation 3, Molecular Device). The HDAC6 enzyme was tested using human recombinant HDAC6 (382180) (Calbiochem) according to the same protocol as the HDAC1 enzyme activity test method. Based on the resulting values, each IC5, value was calculated using GraphPad Prism4.0 program.

The source of these data is US10717716B2, “1,3,4-oxadiazole derivative compounds as histone deacetylase 6 inhibitor, and the pharmaceutical composition comprising the same” (Chong Kun Dang Pharmaceutical Corp., priority 2015, dated 2020).

pIC50: −log10 of the molar value.

For `CCN(Cc1ccc(-c2nnc(C(F)(F)F)o2)cc1)C(=O)N1CCS(=O)(=O)CC1` [Compound 21375, N-ethyl-N-(4-(5-(trifluoromethyl)-1,3,4-oxadiazol-2-yl)benzyl)thiomorpholine-4-carboxamide 1,1-dioxide], the “HDAC6 selectivity (fold)” value turned out to be 6 fold and the pIC50 is 5.76.
With `C[C@@H]1CN(C(=O)N(Cc2ccc(-c3nnc(C(F)(F)F)o3)cc2)c2ccccc2)C[C@H](C)N1Cc1ccccc1` [Compound 21376, (3S,5R)-4-Benzyl-3,5-dimethyl-N-phenyl-N-(4-(5-(trifluoromethyl)-1,3,4-oxadiazol-2-yl)benzyl)piperazine-1-carboxamide], the “HDAC6 selectivity (fold)” value is given as 22 fold and the pIC50 was 6.35.
Taken in the same sequence, the figures for `O=C(N1CCC(F)(F)CC1)N(Cc1ccc(-c2nnc(C(F)(F)F)o2)cc1)c1ccccc1` [Compound 21377, 4,4-Difluoro-N-phenyl-N-(4-(5-(trifluoromethyl)-1,3,4-oxadiazol-2-yl)benzyl)piperidine-1-carboxamide] were 30 fold and 6.48.
Taken in the same sequence, the figures for `CN1CCN(C(=O)N(Cc2ccc(-c3nnc(C(F)F)o3)cc2F)c2ccccc2)CC1` [Compound 21378, N-(4-(5-(difluoromethyl)-1,3,4-oxadiazol-2-yl)-2-fluorobenzyl)-4-methyl-N-phenylpiperazine-1-carboxamide] were 500 fold and 7.70.
The matching figures for `CN1CCCN(C(=O)N(Cc2ccc(-c3nnc(C(F)(F)F)o3)cc2)c2ccccc2)CC1` [Compound 21379, 4-Methyl-N-phenyl-N-(4-(5-(trifluoromethyl)-1,3,4-oxadiazol-2-yl)benzyl)-1,4-diazepane-1-carboxamide]: 132 fold and 7.12.
For the molecule `C[C@@H]1CN(C(=O)N(Cc2ccc(-c3nnc(C(F)(F)F)o3)cc2)c2ccccc2)C[C@H](C)O1` [Compound 21380, (2S,6R)-2,6-Dimethyl-N-phenyl-N-(4-(5-(trifluoromethyl)-1,3,4-oxadiazol-2-yl)benzyl) morpholine-4-carboxamide], the “HDAC6 selectivity (fold)” value was found to be 61 fold and the pIC50 was 6.78.
In the case of `CC(C)(C)N1CCN(C(=O)N(Cc2ccc(-c3nnc(C(F)(F)F)o3)cc2)c2ccccc2)CC1` [Compound 21381, 4-(Tert-butyl)-N-phenyl-N-(4-(5-(trifluoromethyl)-1,3,4-oxadiazol-2-yl)benzyl)piperazine-1-carboxamide], the “HDAC6 selectivity (fold)” value worked out at 76 fold and the pIC50 was 6.88.
Consider `CC(C)(C)N1CCN(C(=O)N(Cc2ccc(-c3nnc(C(F)(F)F)o3)cc2F)c2ccccc2)CC1` [Compound 21382, 4-(Tert-butyl)-N-(2-fluoro-4-(5-(trifluoromethyl)-1,3,4-oxadiazol-2-yl)benzyl)-N-phenylpiperazine-1-carboxamide], for which the “HDAC6 selectivity (fold)” value was 127 fold and the pIC50 is 7.10.
Taken in the same sequence, the figures for `CC(C)(C)N1CCN(C(=O)N(Cc2ccc(-c3nnc(C(F)F)o3)cc2F)c2ccccc2)CC1` [Compound 21383, 4-(Tert-butyl)-N-(4-(5-(difluoromethyl)-1,3,4-oxadiazol-2-yl)-2-fluorobenzyl)-N-phenylpiperazine-1-carboxamide] were 200 fold and 7.30.
The matching figures for `O=C(N1CCN(CCO)CC1)N(Cc1ccc(-c2nnc(C(F)(F)F)o2)cc1)c1ccccc1` [Compound 21384, 4-(2-Hydroxyethyl)-N-phenyl-N-(4-(5-(trifluoromethyl)-1,3,4-oxadiazol-2-yl)benzyl)piperazine-1-carboxamide]: 127 fold and 7.10.
The matching figures for `C[C@@H]1CN(C(=O)N(Cc2ccc(-c3nnc(C(F)(F)F)o3)cc2)c2ccccc2)C[C@H](C)N1` [Compound 21385, (3S,5R)-3,5-Dimethyl-N-phenyl-N-(4-(5-(trifluoromethyl)-1,3,4-oxadiazol-2-yl)benzyl)piperazine-1-carboxamide]: 175 fold and 7.24.
On to `C[C@@H]1CN(C(=O)N(Cc2ccc(-c3nnc(C(F)(F)F)o3)cc2)c2ccccc2)C[C@H](C)N1C` [Compound 21386, (3R,5S)-3,4,5-Trimethyl-N-phenyl-N-(4-(5-(trifluoromethyl)-1,3,4-oxadiazol-2-yl)benzyl)piperazine-1-carboxamide], for which the “HDAC6 selectivity (fold)” value amounted to 213 fold and the pIC50 was 7.33.
Taken in the same sequence, the figures for `CC(=O)N1[C@H](C)CN(C(=O)N(Cc2ccc(-c3nnc(C(F)(F)F)o3)cc2)c2ccccc2)C[C@@H]1C` [Compound 21387, (3R,5S)-4-Acetyl-3,5-dimethyl-N-phenyl-N-(4-(5-(trifluoromethyl)-1,3,4-oxadiazol-2-yl)benzyl)piperazine-1-carboxamide] were 41 fold and 6.62.
As for `C[C@@H]1CN(C(=O)N(Cc2ccc(-c3nnc(C(F)(F)F)o3)cc2)c2ccccc2)C[C@H](C)N1S(C)(=O)=O` [Compound 21388, (3R,5S)-3,5-Dimethyl-4-(methylsulfonyl)-N-phenyl-N-(4-(5-(trifluoromethyl)-1,3,4-oxadiazol-2-yl)benzyl)piperazine-1-carboxamide], the “HDAC6 selectivity (fold)” value was determined as 42 fold and the pIC50 is 6.62.
For the molecule `O=C(N1CCS(=O)(=O)CC1)N(Cc1ccc(-c2nnc(C(F)(F)F)o2)cc1)c1cccc(C(F)(F)F)c1` [Compound 21391, N-(4-(5-(trifluoromethyl)-1,3,4-oxadiazol-2-yl)benzyl)-N-(3-(trifluoromethyl)phenyl)thiomorpholine-4-carboxamide 1,1-dioxide], the “HDAC6 selectivity (fold)” value is recorded as 27 fold and the pIC50 was 6.44.
For `O=C(N1CCS(=O)(=O)CC1)N(Cc1ccc(-c2nnc(C(F)(F)F)o2)cc1)c1cccc(F)c1` [Compound 21392, N-(3-fluorophenyl)-N-(4-(5-(trifluoromethyl)-1,3,4-oxadiazol-2-yl)benzyl)thiomorpholine-4-carboxamide 1,1-dioxide], the “HDAC6 selectivity (fold)” value amounted to 65 fold and the pIC50 is 6.82.
For the molecule `O=C(N1CCS(=O)(=O)CC1)N(Cc1ccc(-c2nnc(C(F)(F)F)o2)cc1)c1ccc(Cl)cc1` [Compound 21394, N-(4-chlorophenyl)-N-(4-(5-(trifluoromethyl)-1,3,4-oxadiazol-2-yl)benzyl)thiomorpholine-4-carboxamide 1,1-dioxide], the “HDAC6 selectivity (fold)” value came out at 56 fold and the pIC50 is 6.75.
Regarding `O=C(N1CCS(=O)(=O)CC1)N(Cc1ccc(-c2nnc(C(F)(F)F)o2)cc1)c1cccc(Cl)c1` [Compound 21395, N-(3-chlorophenyl)-N-(4-(5-(trifluoromethyl)-1,3,4-oxadiazol-2-yl)benzyl)thiomorpholine-4-carboxamide 1,1-dioxide], the “HDAC6 selectivity (fold)” value is on record as 137 fold and the pIC50 is 7.14.
Regarding `CC(C)(O)CN1CCN(C(=O)N(Cc2ccc(-c3nnc(C(F)(F)F)o3)cc2)c2ccccc2)CC1` [Compound 21396, 4-(2-hydroxy-2-methylpropyl)-N-phenyl-N-(4-(5-(trifluoromethyl)-1,3,4-oxadiazol-2-yl)benzyl)piperazine-1-carboxamide], the “HDAC6 selectivity (fold)” value is 34 fold and the pIC50 is 6.53.
